From paper PMC6560211, “ApoAI-derived peptide increases glucose tolerance and prevents formation of atherosclerosis in mice” (Diabetologia, 2019)
No end group written: not given here.

Test system: INS-1E cells
Assay: Glucose-stimulated insulin secretion assay
Format: cell-based, rat
Details: 2 h preincubation with RG54 at 3.3 mmol/l glucose, then 1 h at 20 mmol/l glucose without peptide; ELISA; three independent experiments
Method: INS-1E cells were preincubated for 2 h with HEPES KRB supplemented with 3.3 mmol/l glucose and RG54, then stimulated for 1 h with HEPES KRB supplemented with either 3.3 or 20 mmol/l glucose but no RG54 peptide, and insulin secretion was analysed using ELISA (Mercodia, Uppsala, Sweden). See ESM Methods for more details.
Fig. 3 RG54 induces skeletal muscle glucose uptake and primes INS-1E cells to increase GSIS. (a) C2C12 skeletal muscle myotubes were incubated in the absence or presence of different concentrations of RG54 or with insulin, followed by glucose uptake measurements. Values are means ± SEM from three independent experiments. *p≤0.05, **p≤0.01, ***p≤0.001 vs control. […] Insulin secretion was measured after 1 h glucose challenge. […]
Peptide concentration was determined at 205 nm using a NanoDrop 2000c spectrophotometer (Thermo Scientific) and integrity was analysed by Tris-Tricine SDS-PAGE followed by coomassie staining or by circular dichroism spectroscopy (CD). […]
The primary goal of this study was to investigate the anti -diabetic and anti-atherosclerotic efficacy of a novel ApoA -I derived peptide. Using a range of in vitro models, we assessed the effects of the peptide on HDL formation, cholesterol efflux, insulin secretion, and non -insulin dependent glucose uptake. […] Peptide effects were measured relative to full length ApoA -I and vehicle controls. […]

Ac-AEYHAKATEHLSTLSEKAKPALEDLRQGLLPVLESFKVSFLSALEEYTKKLNTQ [RG54]
GSIS compared with control cells: up to a twofold increase
